From patent US20090076029A1 (Palatin Technologies, Inc., priority 2007, published 2009)

Tests used:
MC1-R [1] = target: T1, MC1-R; test: Competitive inhibition assay using [I125]-NDP-α-MSH, MC1-R membranes; assay type: binding, mouse
T1 construct: other: 1 μM compound

mutant L250Q MC4-R = test system: T2, mutant L250Q MC4-R; test: Reversal of AgRP inverse agonism in cells expressing mutant L250Q MC4-R; assay type: cell-based, human; conditions: HEK-293 cells expressing mutant L250Q MC4 receptors; FIG. 8
T2 construct: expressed in transfected cells
From the text: Expression of recombinant mutant hMC4-R in which a glutamine is exchanged for leucine in amino acid position 250 (L250Q) results in production of increased levels of cAMP in the absence of agonist (Vaisse C. et al., Melanocortin-4 receptor mutations are a frequent and heterogeneous cause of morbid obesity. J Clin Invest 106:253-262, 2000). In some cases, reversal of the inverse agonist activity of AgRP was examined in cells that expressed mutant L250Q MC4-R coupled to a high level of constitutive activity. FIG. 8 illustrates the results obtained with the mutant L250Q MC4-R system.

hMC3-R = target: T3, hMC3-R; test: Competitive inhibition assay using [I125]-NDP-α-MSH, hMC3-R membranes; assay type: binding, human; conditions: read-out: Ki (nM) (NDP-α-MSH) MC3-R
T3 construct: expressed in transfected cells; host or cells: HEK-293
How it was run: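 Single-concentration displacement (usually 1 μM compound) of 0.2–0.4 nM [125I]-NDP-α-MSH, run 90 min at room temperature in pH 7.2 HEPES containing MgCl2, CaCl2 and KCl. Receptor sources: transfected HEK-293 membranes for human MC3-R/MC4-R/MC5-R, B-16 mouse melanoma membranes for MC1-R. Bound counts normalised to 1 μM α-MSH-defined specific binding; triplicates averaged, values below 0% set to 0%.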

MC1-R [2] = test system: T4, MC1-R; test: cAMP functional assay, B-16 mouse melanoma cells expressing MC1-R; assay type: cell-based; conditions: cAMP assay at 1 μM
T4 construct: from B-16 mouse melanoma cells (containing MC1-R); endogenous in cells; host or cells: B-16 mouse melanoma cells

hMC5-R = test system: T5, hMC5-R; test: cAMP functional assay, HEK-293 cells expressing hMC5-R; assay type: cell-based, human; conditions: cAMP assay at 1 μM
T5 construct: expressed in transfected cells; host or cells: HEK-293

MC4-R = test system: T6, MC4-R; assay type: cell-based
T6 construct: expressed in transfected cells; host or cells: HEK-293
From the text: Assay for Antagonists of AgRP in HEK-293/MC4-R Cells stimulated with Forskolin. […] AgRP causes a decrease in the basal adenylyl cyclase activity only to the extent of 40-50%. Even though the AgRP-induced decrease in cAMP levels is substantial, conventional assay methods, such as those described above, have limited sensitivity, precluding detecting small changes that are reversed by certain antagonists to AgRP. This limitation was circumvented by the use of a non-specific activator, forskolin, which directly activates adenylyl cyclase activity and raises cyclic AMP levels. Forskolin, a cell permeable diterpenoid initially isolated from Coleus forskohlii, has the ability to stimulate adenylyl cyclase activity and increase intracellular cAMP, thus activating cAMP-dependent protein kinase and other cAMP receptor proteins. See, e.g., Seamon, K. B., Daly, J. W. Forskolin: a unique diterpene activator of cyclic AMP-generating system. J. Cyclic Nucleotide Res. 7(4):201-24, 1981; Fradkin, J. E., Cook, G. H., Kilhoffer, M. C., Wolff, J. Forskolin stimulation of thyroid adenylate cyclase and cyclic 3′,5′-adenosine monophosphate accumulation. Endocrinology 111 (3):849-56, 1982; Barber, R., Goka, T. J. Adenylate cyclase activity as a function of forskolin concentration. J. Cyclic Nucleotide Protein Phosphor. Res. 10(1):23-9, 1985; and Laurenza, A., Sutkowski, E. M., Seamon, K. B. Forskolin: a specific stimulator of adenylyl cyclase or a diterpene with multiple sites of action? Trends Pharmacol. Sci. 10(11):442-7, 1989. […] The EC50 value was about 5 μM. AgRP inhibited the forskolin-induced response by 65% at a concentration of 10 nM. The difference in forskolin stimulated response and the inhibition due to AgRP in the cAMP levels was exploited to screen compounds for their ability to antagonize AgRP inhibition and […] levels of cAMP accumulation.
Experimental details for assays included incubating cells with the test compound in the presence of the inverse agonist AgRP with the extent of reversal of the AgRP effect measured by following the increase in the levels of intracellular cAMP. HEK-293 cells expressing MCR-4 were suspended in 10 mM HEPES/Earle's Balanced Salt Solution at pH 7.5 with the phosphodiesterase inhibitor IBMX, and pre-incubated for 30 minutes with the compounds (0.5-5000 nM). The cells were then treated with AgRP (10 nM) and incubated further for 30 minutes. The cells were then treated with forskolin (10 μM) and incubated for an additional 60 minutes. Cells were lysed and cAMP was measured by EIA kit (Amersham).

| SMILES | Ki (MC1-R [1]) [nM] | Inhibition at 1 μM (NDP-α-MSH) MC1-R (MC1-R [1]; 1 μM compound) [%] | effect on AgRP-induced decrease in cAMP levels (mutant L250Q MC4-R) | Ki (hMC3-R) [nM] | functional status at MC1-R (MC1-R [2]) | functional status at MC5-R (hMC5-R) | effect on AgRP inhibition of forskolin-stimulated cAMP levels (MC4-R) |
| --- | --- | --- | --- | --- | --- | --- | --- |
| CC(C)C[C@@H]1CN(C(=O)[C@H](N)Cc2ccc(Cl)cc2Cl)[C@@H](CCCNC(=N)N)CN1CCc1ccc2ccccc2c1 [Example 4, N-{3-[1-[2(R)-Amino-3-(2,4-dichloro-phenyl)-propionyl]-5(R)-isobutyl-4-(2-naphthalen-2-yl-ethyl)-piperazin-2(S)-yl]-propyl}-guanidine] | 1360 | 21 | reversal of AgRP-induced decrease in the levels of cAMP | 87 | no intrinsic activity (intrinsic activity below 0.1 (10%) is classified as inactive or having no intrinsic activity) | partial agonist (intrinsic activity between 0.1 (10%) and 0.7 (70%) is classified as a partial agonist) |  |
| CC(=O)N[C@H](Cc1ccc(C)cc1C)C(=O)N1C[C@@H](C)N(CCc2ccc3ccccc3c2)C[C@@H]1CCCNC(=N)N [Example 26, N-{1(R)-(2,4-Dimethyl-benzyl)-2-[2(S)-(3-guanidino-propyl)-5(R)-methyl-4-(2-naphthalen-2-yl-ethyl)-piperazin-1-yl]-2-oxo-ethyl}-acetamide] |  |  |  | 74 |  |  | reversal of AgRP inhibition |
| Cc1ccc(C[C@@H](N)C(=O)N2C[C@@H](C)N(CCc3ccc4ccccc4c3)C[C@@H]2CCCNC(=N)N)c(C)c1 [Example 28, N-{3-[1-[2(R)-Amino-3-(2,4-dimethyl-phenyl)-propionyl]-5(R)-methyl-4-(2-naphthalen-2-yl-ethyl)-piperazin-2(S)-yl]-propyl}-guanidine] |  |  |  | 167 |  |  | reversal of AgRP inhibition |
